Experimental data taken from patent US10238642B2, “Methods for treating neurogenic orthostatic hypotension” (Theravance Biopharma R&D IP, LLC, priority 2016, dated 2019).

Tests used:
human recombinant NET = target: T1, human recombinant NET (Homo sapiens, UniProt P23975); assay: [3H]-NE neurotransmitter uptake inhibition in HEK293-hNET cells; type: cell-based; conditions: human transporters
T1 construct: expressed in transfected cells; host or cells: HEK293
Description: The in vitro pharmacology of 4-[2-(2,4,6-trifluorophenoxymethyl)phenyl]-piperidine at human recombinant and rat native monoamine transporters was characterized as described in Smith et al., Inter. J. Neuropsychopharmcol. (2015) 1-11; and Tsuruda et al., J. Pharmacol. Toxicol. Meth. (2010) 61:192-204. See also, e.g., U.S. Pat. No. 8,304,432 B2 and U.S. Pat. No. 8,304,433 B2. Radioligands were sourced commercially (Perkin Elmer LifeSciences or GE Healthcare Life Sciences).
Briefly, membranes prepared from HEK293 (Human Embryonic Kidney 293) or CHO-K1 (Chinese Hamster Ovary-K1) cells stably transfected with human recombinant SERT (HEK293-hSERT), NET (HEK293-hNET), or DAT (CHO-KT-hDAT) were incubated for 1 hr at 22° C. in the absence, or presence, of 4-[2-(2,4,6-trifluorophenoxymethyl)phenyl]piperidine and [^3H]-citalopram (1.0 nM) for SERT, [^3H]-nisoxetine (2.0 nM) for NET, and [^3H]-WIN35428 (3.0 nM) for DAT in 50 mM Tris-HCl, 120 mM NaCl, 5 mM KCl, 0.025% BSA, 100 μM ascorbic acid, pH 7.4. Rat cortical membrane preparations were incubated with [^3H]-citalopram (2.0 nM) for SERT or [3H]-nisoxetine (4.0 nM) for NET for 1 hr at 22° C. […] Binding and uptake assays were terminated by rapid filtration and radioactivity determined by liquid scintillation spectroscopy.

anesthetized rats = assay: Cardiovascular model in anesthetized rat: intrinsic effect on MAP and HR; type: in vivo; conditions: IP
Description: These studies were conducted to assess the effect of a single administration of 4-[2-(2,4,6-trifluorophenoxymethyl)phenyl]piperidine on heart rate (HR) and mean arterial pressure (MAP) in anesthetized rats.
Normotensive male Sprague-Dawley rats weighing between 250-350 g were anesthetized with an intraperitoneal injection (IP) of thiobutabarbital (Inactin). All animals were kept under complete anesthesia (i.e., absence of response to toe pinch test) for the surgery and for the duration of the study. The right common carotid artery and jugular vein were isolated and catheterized. The trachea was intubated to keep the airway open during the study. After completion of surgery, the arterial catheter was connected to a pressure transducer and baseline blood pressure [Systolic (SBP), Mean Arterial (MAP) and Diastolic (DBP)] and heart rate (HR) were recorded using the Notocord-HEM data acquisition system. Following at least 60 min of baseline (i.e., the last 10 min was stable), vehicle (10% Tween20, 2 mL/kg, IP) was administered and any potential effect was monitored for at least 10 min. After this period, rats were injected with either vehicle or 4-[2-(2,4,6-trifluorophenoxymethyl)phenyl]piperidine ([…], 2 mL/kg, IP) and changes in MAP and HR were monitored for 25 min. […]

[1] = test system: tyramine pressor response; assay: Cardiovascular model in anesthetized rat: inhibition of tyramine pressor response; type: in vivo; conditions: iv, read-out: estimated potency for inhibition of tyramine-induced increase in SBP (Tyr EC50)

T1 sequence (P23975 whole entry): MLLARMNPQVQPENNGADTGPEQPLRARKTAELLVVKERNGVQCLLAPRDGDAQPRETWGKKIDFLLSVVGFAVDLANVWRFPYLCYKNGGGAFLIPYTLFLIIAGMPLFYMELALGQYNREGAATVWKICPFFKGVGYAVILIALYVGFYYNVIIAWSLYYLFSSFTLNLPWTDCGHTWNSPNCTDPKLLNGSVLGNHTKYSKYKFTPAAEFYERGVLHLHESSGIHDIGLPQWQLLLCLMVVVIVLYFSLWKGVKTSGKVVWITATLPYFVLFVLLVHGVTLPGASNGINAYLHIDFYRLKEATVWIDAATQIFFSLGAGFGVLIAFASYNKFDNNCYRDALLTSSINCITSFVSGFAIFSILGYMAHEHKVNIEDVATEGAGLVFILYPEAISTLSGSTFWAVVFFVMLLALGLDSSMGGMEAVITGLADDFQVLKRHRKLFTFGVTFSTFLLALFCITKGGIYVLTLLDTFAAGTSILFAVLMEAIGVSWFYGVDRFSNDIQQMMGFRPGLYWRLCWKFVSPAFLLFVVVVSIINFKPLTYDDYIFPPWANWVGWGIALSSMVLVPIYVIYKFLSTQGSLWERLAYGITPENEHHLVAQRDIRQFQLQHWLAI

Fc1cc(F)c(OCc2ccccc2C2CCNCC2)c(F)c1 [4-[2-(2,4,6-trifluorophenoxymethyl)phenyl]piperidine]
higher potency for inhibition of NET over SERT (human recombinant NET): 4 fold | HR EC25 (free plasma concentration that produced a change in HR of 25 bpm) (anesthetized rats): 8.6 nM | MAP EC10 (free plasma concentration that produced a change in MAP of 10 mm Hg) (anesthetized rats): 101.4 nM | EC50 [1]: 0.86 nM
